The values that follow are results of earlier work, collected in US20130210031A1 (priority 2010, published 2013).

This data set concerns the target EF (Bacillus anthracis, UniProt P40136).

Sequence of EF (P40136 whole entry, looked up): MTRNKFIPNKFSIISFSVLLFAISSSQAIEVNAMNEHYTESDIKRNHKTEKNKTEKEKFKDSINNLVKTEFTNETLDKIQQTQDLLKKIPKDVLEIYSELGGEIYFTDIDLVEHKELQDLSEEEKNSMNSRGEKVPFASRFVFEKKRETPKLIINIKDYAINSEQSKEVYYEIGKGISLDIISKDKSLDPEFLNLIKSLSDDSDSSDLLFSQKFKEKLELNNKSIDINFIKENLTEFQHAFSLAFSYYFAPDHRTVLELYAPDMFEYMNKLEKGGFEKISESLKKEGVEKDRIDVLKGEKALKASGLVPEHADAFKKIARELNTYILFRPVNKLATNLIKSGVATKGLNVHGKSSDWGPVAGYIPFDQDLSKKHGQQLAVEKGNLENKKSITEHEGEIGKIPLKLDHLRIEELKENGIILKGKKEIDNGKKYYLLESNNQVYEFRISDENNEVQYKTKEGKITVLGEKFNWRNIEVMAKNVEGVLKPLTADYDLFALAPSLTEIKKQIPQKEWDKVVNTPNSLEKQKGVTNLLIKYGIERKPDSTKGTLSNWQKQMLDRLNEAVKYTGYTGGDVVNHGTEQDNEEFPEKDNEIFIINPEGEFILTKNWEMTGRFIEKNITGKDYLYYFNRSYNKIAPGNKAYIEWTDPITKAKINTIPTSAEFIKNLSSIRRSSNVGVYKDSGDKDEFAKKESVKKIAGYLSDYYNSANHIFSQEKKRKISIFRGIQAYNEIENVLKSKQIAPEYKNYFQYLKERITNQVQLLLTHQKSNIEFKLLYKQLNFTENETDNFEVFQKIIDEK

`CC(C)(C)C(=O)OCOP(=O)(COCCn1cnc2c(N)ncnc21)OCOC(=O)C(C)(C)C` [adefovir dipivoxil]: the EF inhibitor potency result is recorded as “potent EF inhibitor”.
